{"source": "the NIST ThermoML archive (doi:10.1021/je0340809)", "conditions": "101.33 kPa, Liquid", "note": "Numbers after ± are expanded uncertainties."}
{"molecule": "O=C1CCCN1", "note": "[2-pyrrolidinone]", "values": [{"measurement": "mass density", "setting": "298.15 K", "result": "1107.02 ± 2.4", "unit": "kg/m3"}, {"measurement": "speed of sound", "setting": "298.15 K", "result": "1633.2 ± 6.6", "unit": "m/s"}, {"measurement": "viscosity", "setting": "298.15 K", "result": "13.36 ± 0.48", "unit": "mPa·s"}, {"measurement": "mass density", "setting": "308.15 K", "result": "1099.15 ± 2.3", "unit": "kg/m3"}, {"measurement": "speed of sound", "setting": "308.15 K", "result": "1603.1 ± 6.5", "unit": "m/s"}, {"measurement": "viscosity", "setting": "308.15 K", "result": "8.844 ± 0.34", "unit": "mPa·s"}, {"measurement": "mass density", "setting": "318.15 K", "result": "1091.06 ± 2.2", "unit": "kg/m3"}, {"measurement": "viscosity", "setting": "318.15 K", "result": "6.259 ± 0.26", "unit": "mPa·s"}, {"measurement": "mass density", "setting": "328.15 K", "result": "1082.87 ± 2.1", "unit": "kg/m3"}, {"measurement": "speed of sound", "setting": "328.15 K", "result": "1549.7 ± 6.4", "unit": "m/s"}, {"measurement": "viscosity", "setting": "328.15 K", "result": "4.677 ± 0.2", "unit": "mPa·s"}, {"measurement": "mass density", "setting": "338.15 K", "result": "1070.68 ± 1.9", "unit": "kg/m3"}, {"measurement": "speed of sound", "setting": "338.15 K", "result": "1520.1 ± 6.3", "unit": "m/s"}, {"measurement": "viscosity", "setting": "338.15 K", "result": "3.451 ± 0.15", "unit": "mPa·s"}]}
{"molecule": "CN1CCCC1=O", "note": "[N-methylpyrrolidone]", "values": [{"measurement": "mass density", "setting": "298.15 K", "result": "1028.31 ± 0.68", "unit": "kg/m3"}, {"measurement": "speed of sound", "setting": "298.15 K", "result": "1545.1 ± 13", "unit": "m/s"}, {"measurement": "viscosity", "setting": "298.15 K", "result": "1.663 ± 0.078", "unit": "mPa·s"}, {"measurement": "mass density", "setting": "308.15 K", "result": "1019.33 ± 0.63", "unit": "kg/m3"}, {"measurement": "speed of sound", "setting": "308.15 K", "result": "1518.4 ± 12", "unit": "m/s"}, {"measurement": "viscosity", "setting": "308.15 K", "result": "1.365 ± 0.065", "unit": "mPa·s"}, {"measurement": "mass density", "setting": "318.15 K", "result": "1010.11 ± 0.57", "unit": "kg/m3"}, {"measurement": "speed of sound", "setting": "318.15 K", "result": "1477.8 ± 12", "unit": "m/s"}, {"measurement": "viscosity", "setting": "318.15 K", "result": "1.21 ± 0.058", "unit": "mPa·s"}, {"measurement": "mass density", "setting": "328.15 K", "result": "1001.18 ± 0.51", "unit": "kg/m3"}, {"measurement": "speed of sound", "setting": "328.15 K", "result": "1448.7 ± 12", "unit": "m/s"}, {"measurement": "viscosity", "setting": "328.15 K", "result": "1.117 ± 0.054", "unit": "mPa·s"}, {"measurement": "mass density", "setting": "338.15 K", "result": "992.234 ± 0.56", "unit": "kg/m3"}, {"measurement": "speed of sound", "setting": "338.15 K", "result": "1407.3 ± 12", "unit": "m/s"}, {"measurement": "viscosity", "setting": "338.15 K", "result": "0.986 ± 0.049", "unit": "mPa·s"}]}
{"molecule": "C=CN1CCCC1=O", "note": "[N-vinylpyrrolidone]", "values": [{"measurement": "mass density", "setting": "298.15 K", "result": "1042.04 ± 0.77", "unit": "kg/m3"}, {"measurement": "speed of sound", "setting": "298.15 K", "result": "1530.1 ± 6.3", "unit": "m/s"}, {"measurement": "mass density", "setting": "308.15 K", "result": "1033.19 ± 0.71", "unit": "kg/m3"}, {"measurement": "speed of sound", "setting": "308.15 K", "result": "1499.4 ± 6.2", "unit": "m/s"}, {"measurement": "viscosity", "setting": "308.15 K", "result": "2.942 ± 0.17", "unit": "mPa·s"}, {"measurement": "mass density", "setting": "318.15 K", "result": "1024.38 ± 0.66", "unit": "kg/m3"}, {"measurement": "speed of sound", "setting": "318.15 K", "result": "1467.6 ± 6.1", "unit": "m/s"}, {"measurement": "viscosity", "setting": "318.15 K", "result": "2.59 ± 0.15", "unit": "mPa·s"}, {"measurement": "mass density", "setting": "328.15 K", "result": "1015.58 ± 0.6", "unit": "kg/m3"}, {"measurement": "speed of sound", "setting": "328.15 K", "result": "1430.2 ± 6", "unit": "m/s"}, {"measurement": "viscosity", "setting": "328.15 K", "result": "2.259 ± 0.13", "unit": "mPa·s"}, {"measurement": "mass density", "setting": "338.15 K", "result": "1006.77 ± 0.55", "unit": "kg/m3"}, {"measurement": "speed of sound", "setting": "338.15 K", "result": "1403.3 ± 5.9", "unit": "m/s"}, {"measurement": "viscosity", "setting": "338.15 K", "result": "1.836 ± 0.11", "unit": "mPa·s"}]}
{"molecule": "O", "note": "[water]", "values": [{"measurement": "speed of sound", "setting": "298.15 K", "result": "1498 ± 6.2", "unit": "m/s"}, {"measurement": "speed of sound", "setting": "308.15 K", "result": "1519 ± 6.3", "unit": "m/s"}, {"measurement": "speed of sound", "setting": "318.15 K", "result": "1535.1 ± 6.3", "unit": "m/s"}, {"measurement": "speed of sound", "setting": "328.15 K", "result": "1545 ± 6.3", "unit": "m/s"}, {"measurement": "speed of sound", "setting": "338.15 K", "result": "1551 ± 6.4", "unit": "m/s"}]}
